From US10077261B2, “Imidazolin-5-one derivative useful as FASN inhibitors for the treatment of cancer” (Janssen Pharmaceutica NV, priority 2012, dated 2018) come the findings set out here.

The term inhibition denotes the relative decrease from the control value, in per cent.

Assay [1] concerns the target T1, hFASN enzyme (full length) (Homo sapiens, UniProt P49327).
T1 construct: 10 μL hFASN enzyme (full length, 300 ng, purified in house); made in house
Kind of assay: Fatty Acid Synthase (FASN) inhibition scintillation proximity assay. The assay is classed as biochemical. The settings on record: for inhibition at 10 µM: read-out: Human FASN % inhibition @ 10 μM, 10 μM test compound; for IC50: read-out: Human FASN pIC50 (converted). In short, it runs like this:
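Scintillation proximity format: in-house full-length enzyme, 300 ng per well, pH 7.5 phosphate/DTT buffer, ³H-acetyl-CoA and malonyl-CoA. Emission counted on LEADseeker at 610 nm at least 24 h after stopping.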
Background: SPA uses beads or plates that emit light when radiolabelled molecules are held near them.

Assay [2] concerns A2780 ovarian cells. Kind of assay: A2780 ovarian cell proliferation assay in lipid reduced medium, with palmitate (MTT). The assay is classed as cell-based. The settings on record: Homo sapiens, A2780, 96 h; read-out: pIC50 A2780 Ovarian Cell, With Palmitate (converted). As for the experimental part: (§1) The biological assays described below correspond to comparative assays for ovarian cell proliferation. […] Compounds active in the absence of palmitate would not be expected to be active in the control.
(§2) 2500 cells were seeded in a 96-well clear well plate in 200 μL RPMI1640 with 10% Fetal Calf Serum (Hyclone), and incubated at 37° C., 5% CO2. Blanks were wells without cells. The next day the culture medium was aspirated and replaced by 160 μL culture medium with 10% Lipid-Reduced Serum (LRS, Hyclone). 20 μL test compound (at concentrations of 30 μM, 10 μM, 3 μM, 1 μM, 0.30 μM, 0.10 μM, 0.03 μM and 0.01 μM)/DMSO dilution followed by 20 μL palmitate-BSA solution were added to a final concentrations of 0.2% DMSO, 25 μM palmitate (Sigma, P0500, 10 mM stock solution in ethanol) 0.2% fatty-acid-free BSA, 0.25% ethanol. After 96 h incubation, an MTT assay was performed. The absorbance was measured at 544 nm on a SPECTRAMAX brand microplate reader (Molecular Devices).
A best fit curve was fitted by a minimum sum of squares method, plotting Controlmin versus test compound concentration.
(§3) Representative compounds of the present invention were tested according to the procedure as described in Biological Example 3 above, with results as listed in Table 8, below.

Assay [3] deals with A2780 ovarian cells. The experiment in a line: A2780 ovarian cell proliferation assay in lipid reduced medium, without palmitate (MTT). The settings on record: Homo sapiens, A2780, 96 h; read-out: pIC50 A2780 Ovarian Cell, Without Palmitate (converted). Format: cell-based. As for the experimental part:
as §1
as §2, with “ethanol-BSA” for “palmitate-BSA”, “DMSO,” for “DMSO, 25 μM palmitate (Sigma, P0500, 10 mM stock solution in ethanol)”, “incubation” for “incubation,”
where mLC and mHC were the means of the low control wells and high control wells on the plate, after manual exclusion of outliers. A plot of Controlmin versus test compound concentration was fitted to a 4-parameter logistic curve using a non-linear least squares regression method.
as §3

T1 sequence (P49327 whole entry): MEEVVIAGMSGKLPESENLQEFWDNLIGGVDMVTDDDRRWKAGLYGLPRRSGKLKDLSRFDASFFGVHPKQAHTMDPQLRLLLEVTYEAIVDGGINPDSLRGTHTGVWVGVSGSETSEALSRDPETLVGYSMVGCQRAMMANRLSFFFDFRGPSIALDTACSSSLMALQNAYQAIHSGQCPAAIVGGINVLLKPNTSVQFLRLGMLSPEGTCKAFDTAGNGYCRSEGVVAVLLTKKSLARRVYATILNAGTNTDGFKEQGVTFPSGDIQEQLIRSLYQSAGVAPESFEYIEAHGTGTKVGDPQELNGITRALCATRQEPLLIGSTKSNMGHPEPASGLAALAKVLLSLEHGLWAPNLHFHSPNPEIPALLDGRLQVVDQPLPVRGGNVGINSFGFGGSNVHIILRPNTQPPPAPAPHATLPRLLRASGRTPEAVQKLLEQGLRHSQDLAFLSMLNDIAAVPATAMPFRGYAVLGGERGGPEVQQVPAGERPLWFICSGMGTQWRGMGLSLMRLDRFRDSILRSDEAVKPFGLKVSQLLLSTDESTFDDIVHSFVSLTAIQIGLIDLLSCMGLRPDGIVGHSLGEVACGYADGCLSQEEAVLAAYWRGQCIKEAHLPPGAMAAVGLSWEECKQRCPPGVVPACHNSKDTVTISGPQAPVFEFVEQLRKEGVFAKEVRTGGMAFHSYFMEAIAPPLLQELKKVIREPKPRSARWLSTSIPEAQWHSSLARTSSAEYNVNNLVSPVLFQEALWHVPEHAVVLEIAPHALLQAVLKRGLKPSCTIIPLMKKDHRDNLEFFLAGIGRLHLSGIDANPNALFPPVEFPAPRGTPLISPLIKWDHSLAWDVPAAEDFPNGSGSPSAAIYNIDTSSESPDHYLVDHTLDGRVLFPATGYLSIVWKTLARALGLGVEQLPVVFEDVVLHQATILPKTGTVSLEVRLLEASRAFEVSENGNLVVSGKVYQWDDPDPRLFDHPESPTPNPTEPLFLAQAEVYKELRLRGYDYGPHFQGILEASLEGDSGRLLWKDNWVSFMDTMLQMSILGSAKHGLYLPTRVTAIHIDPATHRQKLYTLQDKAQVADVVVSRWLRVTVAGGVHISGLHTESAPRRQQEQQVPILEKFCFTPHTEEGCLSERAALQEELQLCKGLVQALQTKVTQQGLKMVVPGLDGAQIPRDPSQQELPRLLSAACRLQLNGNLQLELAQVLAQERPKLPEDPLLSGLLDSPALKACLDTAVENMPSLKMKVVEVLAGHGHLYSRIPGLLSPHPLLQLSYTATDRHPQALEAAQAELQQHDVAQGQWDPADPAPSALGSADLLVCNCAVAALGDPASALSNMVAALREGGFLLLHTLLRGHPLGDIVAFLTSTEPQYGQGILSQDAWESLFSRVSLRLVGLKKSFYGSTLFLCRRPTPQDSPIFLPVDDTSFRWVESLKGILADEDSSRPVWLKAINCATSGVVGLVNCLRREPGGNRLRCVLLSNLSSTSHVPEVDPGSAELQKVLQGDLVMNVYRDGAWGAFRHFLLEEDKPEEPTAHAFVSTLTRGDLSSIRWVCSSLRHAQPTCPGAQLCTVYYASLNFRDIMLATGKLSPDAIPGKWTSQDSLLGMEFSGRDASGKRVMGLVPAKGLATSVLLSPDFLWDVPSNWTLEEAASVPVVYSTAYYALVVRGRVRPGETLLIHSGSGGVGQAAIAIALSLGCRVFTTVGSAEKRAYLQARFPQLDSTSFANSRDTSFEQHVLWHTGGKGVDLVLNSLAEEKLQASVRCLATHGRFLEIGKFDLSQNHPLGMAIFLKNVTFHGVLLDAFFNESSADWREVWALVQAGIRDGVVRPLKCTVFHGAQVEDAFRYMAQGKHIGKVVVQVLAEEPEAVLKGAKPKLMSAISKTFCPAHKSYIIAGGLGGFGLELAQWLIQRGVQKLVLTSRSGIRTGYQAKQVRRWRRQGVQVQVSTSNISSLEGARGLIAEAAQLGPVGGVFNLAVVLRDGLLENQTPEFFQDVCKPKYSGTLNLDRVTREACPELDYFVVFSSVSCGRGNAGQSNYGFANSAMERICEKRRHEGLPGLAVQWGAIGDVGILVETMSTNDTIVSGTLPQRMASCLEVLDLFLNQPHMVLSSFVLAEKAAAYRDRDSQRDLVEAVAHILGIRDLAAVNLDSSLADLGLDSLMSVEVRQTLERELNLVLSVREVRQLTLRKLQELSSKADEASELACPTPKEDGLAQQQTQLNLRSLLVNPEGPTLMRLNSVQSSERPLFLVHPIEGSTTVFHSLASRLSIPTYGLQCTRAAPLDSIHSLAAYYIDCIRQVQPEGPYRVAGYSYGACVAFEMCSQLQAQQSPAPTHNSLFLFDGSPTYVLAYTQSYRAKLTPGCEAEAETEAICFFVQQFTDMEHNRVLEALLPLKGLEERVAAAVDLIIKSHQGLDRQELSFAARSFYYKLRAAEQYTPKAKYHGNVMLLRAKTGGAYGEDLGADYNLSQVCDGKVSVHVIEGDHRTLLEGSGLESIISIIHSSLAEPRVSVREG

Take `O=C(C1CC1)N1CC[C@@H](CN2C(=O)C3(CC3)N=C2c2ccc(-c3cccc(C(F)(F)F)c3)cc2)C1` [compound 126, 6-{[(3R)-1-(Cyclopropylcarbonyl)pyrrolidin-3-yl]methyl}-5-[3′-(trifluoromethyl)biphenyl-4-yl]-4,6-diazaspiro[2.4]hept-4-en-7-one]: the inhibition at 10 µM in assay [1] was determined as 96.3%. Moreover, the results for the IC50 in assay [1], in assay [2] and in assay [3] were 0.646 µM, over 10 µM and over 10 µM, respectively.
With `Cn1ncc2cc(-c3ccc(C4=NC5(CCN(CCO)CC5)C(=O)N4C[C@@H]4CCN(C(=O)C5CC5)C4)cc3)ccc21` [compound 127, (R)-3-((1-(Cyclopropanecarbonyl)pyrrolidin-3-yl)methyl)-8-(2-hydroxyethyl)-2-(4-(1-methyl-1H-indazol-5-yl)phenyl)-1,3,8-triazaspiro[4.5]dec-1-en-4-one], in assay [1], the inhibition at 10 µM came to 107%. In addition, the IC50 was 0.49 µM in assay [1], 7.59 µM in assay [2] and 0.933 µM in assay [3].
Taken in the same sequence, the figures for `O=C(C1CC1)N1CC[C@@H](CN2C(=O)C3(CCNCC3)N=C2c2ccc(-c3ccc4occc4c3)cc2)C1` [compound 133, 2-[4-(1-Benzofuran-5-yl)phenyl]-3-{[(3R)-1-(cyclopropylcarbonyl)pyrrolidin-3-yl]methyl}-1,3,8-triazaspiro[4.5]dec-1-en-4-one] were 99.1%, 0.447 µM, over 10 µM and about 3.16 µM.
Taken in the same sequence, the figures for `O=C(C1CC1)N1CCC2(CC1)N=C(c1ccc(-c3ccc4occc4c3)cc1)N(CC1CN(C(=O)C3CC3)C1)C2=O` [compound 134, 2-[4-(1-Benzofuran-5-yl)phenyl]-8-(cyclopropylcarbonyl)-3-{[1-(cyclopropylcarbonyl)azetidin-3-yl]methyl}-1,3,8-triazaspiro[4.5]dec-1-en-4-one] were 91.7%, 0.562 µM, over 10 µM and 4.47 µM.
For `CC(C)C(=O)N1CCC2(CC1)N=C(c1ccc(-c3ccc4cnccc4c3)cc1)N(CC1CN(C(=O)C3CC3)C1)C2=O` [compound 137, 3-{[1-(Cyclopropylcarbonyl)azetidin-3-yl]methyl}-2-(4-isoquinolin-6-ylphenyl)-8-(2-methylpropanoyl)-1,3,8-triazaspiro[4.5]dec-1-en-4-one], the inhibition at 10 µM in assay [1] came to 112%. For the same compound, the IC50 was 0.178 µM in assay [1], about 6.03 µM in assay [2] and about 0.851 µM in assay [3].
On to `CC1(C(=O)N2CC[C@@H](CN3C(=O)C4(CC4)N=C3c3ccc(-c4ccc5cc(F)ccc5c4)cc3F)C2)CC1` [compound 363, (R)-5-(2-fluoro-4-(6-fluoronaphthalen-2-yl)phenyl)-6-((1-(1-methylcyclopropancecarbonyl)pyrrolidin-3-yl)methyl)-4,6-diazaspiro[2.4]hept-4-en-7-one], for which the inhibition at 10 µM in assay [1] came to 94%. For the same compound, the IC50 is 0.0398 µM in assay [1], about 1.51 µM in assay [2] and about 0.00646 µM in assay [3].
With `Cn1cc(-c2ccc(-c3ccc(C4=NC5(CC5)C(=O)N4C[C@@H]4CCN(C(=O)C5(C)CC5)C4)c(F)c3)cc2)cn1` [compound 364, (R)-5-(3-fluoro-4′-(1-methyl-1H-pyrazol-4-yl)-[1,1′-biphenyl]-4-yl)-6-((1-(1-methylcyclopropanecarbonyl)pyrrolidin-3-yl)methyl)-4,6-diazaspiro[2.4]hept-4-en-7-one], the inhibition at 10 µM in assay [1] stood at 89%. The IC50 is 0.0575 µM in assay [1], 0.229 µM in assay [2] and about 0.00295 µM in assay [3].
Taken in the same sequence, the figures for `COc1ccc2cc(-c3ccc(C4=NC5(CC5)C(=O)N4CC4CN(C(=O)C5(O)CC5)C4)c(F)c3)ccc2c1` [compound 366, 5-(2-fluoro-4-(6-methoxynaphthalen-2-yl)phenyl)-6-((1-(1-hydroxycyclopropanecarbonyl)azetidin-3-yl)methyl)-4,6-diazaspiro[2.4]hept-4-en-7-one] were 89%, 0.0617 µM, 0.562 µM and about 0.00562 µM.
Regarding `Cc1cc(-c2ccc3c(cnn3C)c2)ccc1C1=NC2(CC2)C(=O)N1CC1CN(C(=O)c2nccs2)C1` [compound 518, 5-[2-Methyl-4-(1-methyl-1H-indazol-5-yl)phenyl]-6-{[1-(1,3-thiazol-2-ylcarbonyl)azetidin-3-yl]methyl}-4,6-diazaspiro[2.4]hept-4-en-7-one], the inhibition at 10 µM in assay [1] was 62%. Also, the figures for the IC50 in assay [1], in assay [2] and in assay [3] were about 4.68 µM, about 4.07 µM and about 3.98 µM, respectively.
`O=C(C1CC1)N1CC(CN2C(=O)C3(CC3)N=C2c2ccc(-c3ccc4c(cnn4C4CC4)c3)cc2F)C1` [compound 522, 6-{[1-(Cyclopropylcarbonyl)azetidin-3-yl]methyl}-5-[4-(1-cyclopropyl-1-indazol-5-yl)-2-fluorophenyl]-4,6-diazaspiro[2.4]hept-4-en-7-one]: the inhibition at 10 µM in assay [1] came out at 79%. Moreover, the IC50 in assay [1] is 1.66 µM; in assay [2], over 10 µM; in assay [3], 2.88 µM.
Taken in the same sequence, the figures for `O=C(C1CC1)N1CC(CN2C(=O)C3(CC3)N=C2c2ccc(-c3ccc4nn(CC5CC5)cc4c3)cc2F)C1` [compound 524, 6-{[1-(Cyclopropylcarbonyl)azetidin-3-yl]methyl}-5-{4-[2-(cyclopropylmethyl)-2H-indazol-5-yl]-2-fluorophenyl}-4,6-diazaspiro[2.4]hept-4-en-7-one] were 73%, 2.09 µM, over 10 µM and 4.9 µM.
The like results for `CC(C)n1ccc2cc(-c3ccc(C4=NC5(CC5)C(=O)N4CC4CN(C(=O)C5CC5)C4)c(F)c3)ccc21` [compound 525, 6-{[1-(Cyclopropylcarbonyl)azetidin-3-yl]methyl}-5-{2-fluoro-4-[1-(1-methylethyl)-1H-indol-5-yl]phenyl}-4,6-diazaspiro[2.4]hept-4-en-7-one] were, in that order, 84%, 1.05 µM, over 10 µM and 4.9 µM.
Consider `O=C(C1CC1)N1CC(CN2C(=O)C3(CC3)N=C2c2ccc(-c3ccc4c(cnn4CCO)c3)cc2F)C1` [compound 527, 6-{[1-(Cyclopropylcarbonyl)azetidin-3-yl]methyl}-5-{2-fluoro-4-[1-(2-hydroxyethyl)-1H-indazol-5-yl]phenyl}-4,6-diazaspiro[2.4]hept-4-en-7-one], for which the inhibition at 10 µM in assay [1] was 83%. Moreover, the IC50 in assay [1] was 1.58 µM; in assay [2] it was over 10 µM; in assay [3] it was about 1.95 µM.
As to `O=C(C1CC1)N1CC(CN2C(=O)C3(CC3)N=C2c2ccc(-c3cc4ccccc4nc3O)cc2)C1` [compound 532, 6-{[1-(Cyclopropylcarbonyl)azetidin-3-yl]methyl}-5-[4-(2-hydroxyquinolin-3-yl)phenyl]-4,6-diazaspiro[2.4]hept-4-en-7-one], the inhibition at 10 µM in assay [1] stood at 58%. The IC50 in assay [1] was 5.37 µM; in assay [2], over 10 µM; in assay [3], over 10 µM.
`N#CCCn1ncc2cc(-c3ccc(C4=NC5(CC5)C(=O)N4CC4CN(C(=O)C5CC5)C4)cc3)ccc21` [compound 533, 3-{5-[4-(6-{[1-(Cyclopropylcarbonyl)azetidin-3-yl]methyl}-7-oxo-4,6-diazaspiro[2.4]hept-4-en-5-yl)phenyl]-1H-indazol-1-yl}propanenitrile]: the inhibition at 10 µM in assay [1] was found to be 54%. Besides, the IC50 in assay [1] was 7.59 µM; in assay [2] it was over 10 µM; in assay [3], over 10 µM.
Regarding `Cc1cc(Cl)c2ccc(-c3ccc(C4=NC5(CC5)C(=O)N4CC4CN(C(=O)C5CC5)C4)cc3)cc2n1` [compound 535, 5-[4-(4-Chloro-2-methylquinolin-7-yl)phenyl]-6-{[1-(cyclopropylcarbonyl)azetidin-3-yl]methyl}-4,6-diazaspiro[2.4]hept-4-en-7-one], the inhibition at 10 µM in assay [1] is 53%. Moreover, the IC50 in assay [2] was 7.76 µM; in assay [3], 6.61 µM.
